According to PubChem BioAssay (NCI):
Several values for one entry are separate records, joined by “and”; a condition that tells them apart may be missing. Equal values may be shown once.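 48-hour exposure; five concentrations; linearly interpolated endpoints. GI50 is the concentration that inhibits growth by half. TGI marks complete inhibition of growth.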

Legend:
Test in all cases: inhibition of tumour cell growth, NCI panel, 48 h
OVCAR-3 ovarian = system: OVCAR-3 ovarian
HCC-2998 colon = system: HCC-2998 colon
LOX IMVI melanoma = system: LOX IMVI melanoma
HS 578T breast = system: HS 578T breast
CAKI-1 renal = system: CAKI-1 renal
SF-268 CNS = system: SF-268 CNS
T-47D breast = system: T-47D breast
SK-OV-3 ovarian = system: SK-OV-3 ovarian
MDA-MB-435 = system: MDA-MB-435
SK-MEL-2 melanoma = system: SK-MEL-2 melanoma

Structure (SMILES)	GI50 (OVCAR-3 ovarian)	TGI (OVCAR-3 ovarian)	GI50 (HCC-2998 colon)	TGI (HCC-2998 colon)	GI50 (LOX IMVI melanoma) [µM]	TGI (LOX IMVI melanoma)	GI50 (HS 578T breast)	TGI (HS 578T breast)	GI50 (CAKI-1 renal)	TGI (CAKI-1 renal)	GI50 (SF-268 CNS)	TGI (SF-268 CNS)	GI50 (T-47D breast)	TGI (T-47D breast)	GI50 (SK-OV-3 ovarian)	TGI (SK-OV-3 ovarian)	GI50 (MDA-MB-435)	TGI (MDA-MB-435)	GI50 (SK-MEL-2 melanoma) [µM]	TGI (SK-MEL-2 melanoma)
O=C1C(=O)c2ccccc2C(O)=C1CC=C(Cl)Cl	9.76 µM and 15 µM	38.9 µM and 70.8 µM and 70.3 µM	15.3 µM and 13.8 µM	> 80.9 µM and 133 µM and > 100 µM	2.68	30.7 µM and 51.9 µM and > 100 µM	14 µM and 13.3 µM	194 µM and > 100 µM	7.47 µM and 7.14 µM	65.6 µM and 136 µM and > 100 µM	9.02 µM and 7.72 µM	202 µM and > 100 µM	11 µM and 20.1 µM	49.3 µM and 213 µM and > 100 µM	15.1 µM and 16.1 µM	50.2 µM and 149 µM and > 100 µM	5.7 µM and 7.43 µM	29.2 µM and 109 µM and 80.6 µM	22.1	44.3 µM and 47.1 µM and 63.9 µM
O=S(=O)(NCCNc1cc(-c2cn(-c3ccccc3)nc2-c2cccc(O)c2)ccn1)c1ccc(Cl)cc1	2.06 µM	5.05 µM	1.99 µM	4.14 µM	1.76	3.56 µM	3 µM	> 100 µM	4.46 µM	> 100 µM	2.51 µM	8.94 µM	2.16 µM	7.74 µM	3.62 µM	19.6 µM	2.86 µM	10.1 µM	2.4	5.71 µM
CS(=O)(=O)CCn1c(=O)c(Oc2ccc(F)cc2F)cc2cnc(NC3CCOCC3)nc21	> 25 µM	> 25 µM	> 25 µM	> 25 µM	> 25	> 25 µM	> 25 µM	> 25 µM	> 25 µM	> 25 µM	> 25 µM	> 25 µM	> 25 µM	> 25 µM	> 25 µM	> 25 µM	> 25 µM	> 25 µM	> 25	> 25 µM
CC(=O)c1cc2c(c3ccsc13)-c1ccccc1CC2	25.4 µM	> 100 µM	8.95 µM	27.3 µM	32.3	> 100 µM	2.17 µM	44.6 µM	29.4 µM	> 100 µM	43.4 µM	> 100 µM	> 100 µM	> 100 µM	> 100 µM	> 100 µM	4.76 µM	> 100 µM	26.5	83 µM
CCN(CC)CCOc1ccc2c(c1)C(=O)c1cc(OCCN(CC)CC)ccc1-2	18.3 µM	52.6 µM	10 µM	22.6 µM	4.31	16.7 µM	13.7 µM	38 µM	30.2 µM	> 100 µM	8.5 µM	33.1 µM	23.8 µM	56.2 µM	16.4 µM	60.2 µM	12.9 µM	27.7 µM	11.3	24.4 µM
CC(=O)OC1CCC2(C)C(=CCC3C4CCC5(OC6CC(C)CN(C(C)=O)C6C5C)C(C)=C4C(=O)C32)C1 (configuration not stated)		72.6 µM		28.8 µM		24.4 µM		31.4 µM		75.1 µM		31.4 µM		49 µM		66.8 µM		32 µM		31.9 µM
Cc1ccc2c(c1)O/C(=C\c1ccc([N+](=O)[O-])o1)C2=O	1.53 µM	2.86 µM	2.05 µM	4.49 µM	1.47	3.1 µM	2.09 µM	6.25 µM	1.41 µM	2.94 µM	1.91 µM	5.03 µM	1.86 µM	4.77 µM	4.66 µM	> 100 µM	1.87 µM	4.42 µM	1.9	3.72 µM
O=C(Nc1ccc(Cl)cc1)c1cc(S(=O)(=O)Nc2nnc(-c3ccccc3)c(-c3ccccc3)n2)c(SCc2ccccc2)cc1Cl	17.1 µM	41.2 µM	17.6 µM	33.7 µM	17.3	35.1 µM	20.6 µM	71.1 µM	24.8 µM	> 59 µM	26.9 µM	> 68.3 µM	24.8 µM	> 64.2 µM	> 44.2 µM	> 60.7 µM	21.2 µM	61.5 µM	41.3	> 100 µM
COC(=O)C1(C2CC/C(C)=C/CC/C(C)=C/CC[C@@]3(C)O[C@@H]3C2)CC1 (some centres not stated)	62.9 µM	> 100 µM		> 20.8 µM	23.6	> 60.5 µM	> 91.2 µM	> 100 µM	32.1 µM	> 85 µM	> 100 µM	> 100 µM	> 93 µM	> 100 µM	> 100 µM	> 100 µM	32.1 µM	98.3 µM	> 100	> 100 µM
COc1ccc(-c2nnc(N3CCN(C(=O)CN4CCN(c5ccc(Cl)cc5)CC4)CC3)nc2-c2ccc(OC)cc2)cc1	28.7 µM	> 100 µM	56.8 µM	> 100 µM	15.6	> 100 µM	23.5 µM	> 100 µM	28.5 µM	> 100 µM	> 100 µM	> 100 µM	4.51 µM	74.8 µM	36.6 µM	> 100 µM	66.1 µM	> 100 µM	35.5	> 100 µM
C/C1=C\C/C=C(\C)[C@H]2CC(CC/C(C)=C/CC1)[C@](C)(C=O)O2	76.4 µM	> 100 µM	49.8 µM	> 100 µM	22.2	48.5 µM	> 100 µM	> 100 µM	36.4 µM	99.2 µM	> 100 µM	> 100 µM	> 100 µM	> 100 µM	> 100 µM	> 100 µM	66.1 µM	> 100 µM	> 100	> 100 µM
CC(C)(C)OC(=O)CN1CCc2c(sc3ncnc(N/N=C/c4cccc5ccccc45)c23)C1	1 µM	3.92 µM	3.6 µM	11.7 µM	1.72	5.93 µM	1.42 µM	16 µM	3.3 µM	18.7 µM	3.59 µM	24.3 µM	1.83 µM	17.9 µM	4.48 µM	26.1 µM	2.1 µM	9.83 µM	5	12.3 µM
COc1ccc2c(c1)cn1c3ccc(O)cc3[nH]c(=O)c21	0.0968 µM	1.74 µM	0.667 µM	4.42 µM	0.072	1.96 µM	0.481 µM	25.2 µM	0.302 µM	16.3 µM	0.136 µM	19.1 µM	0.487 µM	2.37 µM	0.202 µM	12.8 µM	0.0252 µM	0.171 µM	0.215	2.08 µM
Cc1cccc2c1O/C(=C\c1ccc([N+](=O)[O-])o1)C2=O	0.689 µM	1.89 µM	1.34 µM	3.91 µM	1.23	2.69 µM	2.25 µM	> 25 µM	0.494 µM	1.8 µM	1.56 µM	3.94 µM	1.2 µM	3.69 µM	2.57 µM	8.28 µM	1.02 µM	2.46 µM	1.76	3.52 µM
NC(=S)N/N=C\c1nccc2c(N)cccc12	0.306 µM	> 100 µM	0.374 µM	> 100 µM	0.292		1.68 µM	> 100 µM	0.243 µM	1.01 µM	0.242 µM		0.454 µM	> 100 µM	0.541 µM	> 100 µM	0.379 µM	> 100 µM	2.79	> 100 µM
CNC(=O)OC1C(O[C@H]2C[C@H]3[C@@H]4CC=C5C[C@@H](O)CC[C@]5(C)[C@H]4CC[C@]3(C)[C@H]2[C@H](C)C(=O)CCC(C)C)OCC(O)C1OC1OCC(O)C(O)C1OC(=O)c1ccc(OC)cc1 (some centres not stated)	1.03 µM	6.1 µM	0.693 µM	5.25 µM	0.0106	0.0688 µM	< 0.00275 µM	0.0584 µM	0.0676 µM	1.04 µM	0.0226 µM	2.78 µM	0.035 µM	3.69 µM	0.0177 µM	1.31 µM	0.0203 µM	0.359 µM	0.00933	0.324 µM
CN1CCN(c2ccc(NC3=C(Cl)C(=O)c4ncccc4C3=O)cc2C#N)CC1	0.229 µM	1 µM	2.34 µM	7.03 µM	1.51	3.19 µM	2.14 µM	5.47 µM	1.09 µM	2.31 µM	2.09 µM	5.27 µM	1.76 µM	5.26 µM	13.8 µM	27.5 µM	1.91 µM	3.67 µM	2.26	4.69 µM
O=c1c2ccccc2nc(-c2ccccc2)n1O		> 100 µM		> 100 µM		> 100 µM		> 100 µM		> 100 µM		> 100 µM		> 100 µM		> 100 µM		> 100 µM		> 100 µM
Oc1c(I)cc(-c2nc3ccccc3s2)cc1CN(Cc1ccccn1)Cc1ccccn1	0.534 µM	11.7 µM	0.43 µM	43.9 µM	0.305	1.38 µM	1.61 µM	93 µM	0.413 µM	2.47 µM	0.301 µM	95.2 µM	0.666 µM	83.3 µM	0.437 µM	> 100 µM	0.428 µM	14.3 µM	0.362	17.8 µM
COc1ccc(CC(NC(=O)[C@H](C)NC(=O)CN2CCOCC2)C(=O)N[C@@H](Cc2ccccc2)C(=O)[C@@]2(C)CO2)cc1 (some centres not stated)	0.198 µM	0.421 µM	0.174 µM	0.324 µM	0.148	0.379 µM	0.286 µM	2.12 µM	4.29 µM	> 57.8 µM	0.245 µM	0.708 µM	0.208 µM	0.482 µM	0.392 µM	1.77 µM	0.069 µM	0.484 µM	0.264	0.974 µM
[C-]#[N+][C@]12C(=O)[C@H](CCC1(C)C)C(C)(C)[C@H]1C(=O)N(C)c3cccc2c31	4.13 µM	> 100 µM	> 100 µM	> 100 µM	> 100	> 100 µM	68.5 µM	> 100 µM	51.7 µM	> 100 µM	> 100 µM	> 100 µM	9.41 µM	> 100 µM	44.4 µM	> 100 µM	24.7 µM	> 100 µM	30.6	> 100 µM
OCC#Cc1ccccc1C#Cc1ccc(C#Cc2ccccc2C#CCO)s1	12.8 µM	25.4 µM	14.7 µM	28.8 µM	20.4	53.6 µM	22.3 µM	58.1 µM	12.1 µM	25.1 µM	20.6 µM	44.5 µM	17.3 µM	53.8 µM	15.9 µM	34.4 µM	15.1 µM	29.2 µM	14.6	35.8 µM
O=C(NNS(=O)(=O)c1ccc(F)cc1)c1cccnc1Nc1ccc(Cl)cc1Cl	29.7 µM	94.5 µM	30 µM	> 100 µM	32.1	> 100 µM	27.9 µM	> 100 µM	31.2 µM	> 100 µM	45.2 µM	> 100 µM	18.7 µM	98.1 µM	38.1 µM	> 100 µM	84.4 µM	> 100 µM	42.3	> 100 µM
COc1cc2cc(Oc3ccc(NC(=O)Nc4ccc(Cl)c(C(F)(F)F)c4)cc3)c(C)nc2cc1OC	1.16 µM	4.45 µM	1.77 µM	5.48 µM	1.22	4.16 µM	0.72 µM	2.31 µM	0.782 µM	2.54 µM	1.55 µM	6.34 µM	1.21 µM	7.9 µM	1.35 µM	5.79 µM	1.03 µM	4.71 µM	0.799	1.94 µM
